Results on nine substances are retold here after patent US20110268757A1, “USE OF PHENOL-SOLUBLE MODULINS FOR VACCINE DEVELOPMENT” (INSTITUT PASTEUR, priority 2008, published 2011).

Assay [1] relates to target cells pulsed with peptide 1073. As to the kind of experiment: In vivo killing assay using target cells pulsed with peptide 1073. The settings on record: 5 nmoles peptide with poly I:C, seven days after immunization. The method, then:
C57BL6 mice were intravenously immunized intravenously with 5 nmoles of the indicated peptides in combination with 50 μg of the TLR3 ligand poly I:C. In some cases, the peptides were immunized in the presence of TLR2 (peptidoglycan), TLR4 (LPS or the EDA protein) or TLR9 (CpG) ligand. […] On the following day, the mice were sacrificed and the splenocytes were analyzed by flow cytometry to quantify the number of cells with high CFSE labeling with respect to the cells with low CFSE labeling. Thus, the percentage of cell lysis of the cells incubated with the cytotoxic […] peptide can be calculated in an experiment called in vivo killing.
(§1) Thus the peptides αMod-1073, γMod-1073 and δMod-1073 as well as the peptide p1073 alone were synthesized. HELD transgenic mice (which express the human HLA_A2 molecule) were immunized with 5 nmoles of the corresponding peptide in the presence of poly I:C. Seven days after immunization, ELISPOT and in vivo killing assays were carried out as described above using target cells pulsed with peptide 1073.

Assay [2] relates to IFNγ producing cells specific for peptide p1073 from hepatitis C NS3 protein. As to the kind of experiment: ELISPOT of IFNγ producing cells specific for peptide 1073 after immunization. The settings on record: 5 nmoles peptide with poly I:C, seven days after immunization. It counts as in vivo. The method, then:
For the analysis of IFNγ-producing cells specific for […] and induced in vivo by the immunizations, ELISPOT experiments were carried out using a BD-pharmingen kit (San Diego, Calif.) and according to the instructions of the manufacturer. Briefly, the plates (Multiscreen HTS, Millipore, Bedford, Mass.) incubated overnight with the anti-IFNγ antibody were blocked for 2 hours with HL-1 medium (Biowhittaker, Verviers, Belgium) containing 10% horse serum. Thus, 5×10^5 splenocytes were incubated in triplicate in the absence or in the presence of the antigens at 37° C. and 5% CO2. On the following day, the plates were washed with PBS and incubated with biotinylated anti-IFNγ antibody (2 mg/ml). After two hours, the plates were washed and incubated with a 1/100 dilution of streptavidin-peroxidase. One hour later, the wells were washed and developed using the AEC substrate set (BD-Pharmingen). The colorimetric reaction was stopped with distilled water and the number of spots was quantified using an ELISPOT automatic reader (CTL, Aalen, Germany).
as §1

Assay [3] relates to dendritic cells derived from bone marrow. Kind of assay: Upregulation of maturation markers on dendritic cells (flow cytometry). It counts as cell-based, mouse. To be noted: 50 μM peptide, 48 hours. The method, then:
(§2) Dendritic cells were grown from bone marrow cells. […] The remaining cells grew in 12 culture plates in complete medium with 10^6 cells/ml supplemented with 20 ng/ml of mGM-CSF and 20 ng/ml of mIL-4 (both from Peprotech; London, GB). Every 2 days the medium was substituted with fresh medium containing cytokines. On day 7, non-adherent dendritic cells were collected, and cultured in the presence or absence of 50 μM of modulin peptides or of 1 μg/ml of LPS (Sigma) and incubated for 48 hours at 37° C. and 5% CO2. After this period, the cells were isolated and incubated with anti IAb, CD54 and CD86 antibodies (Pharmingen). In parallel experiments, the dendritic cells were incubated with the indicated stimuli for 16 hours, after which the expression of the messenger RNA for the p40 molecules of IL-12 and of TNF-α was analyzed.
Expression of DC maturation markers was measured by flow cytometry. DC were harvested and pre-incubated with a rat anti-CD16/32 mAb (2.4G2 clone, BD Pharmingen) for 15 min, to block non-specific binding of primary antibodies. After this initial incubation, cells were stained with the primary antibodies at 4° C. for 15 min, washed and acquired on FACSscan cytometer (BD Biosciences, San Diego, Calif.) and analyzed using Cell Quest software (BD Biosciences).

The test system is the same in assay [4]. Kind of assay: Expression of messenger RNA for IL-12 p40 and TNFα in dendritic cells (real-time PCR). It is filed as cell-based, mouse. To be noted: 50 μM peptide, 16 hours, versus culture medium alone, p<0.05. The method, then:
as §2
The total RNA of dendritic cells incubated for 16 hours with the different stimuli indicated above were extracted using the Nucleic Acid Purification Lysis Solution (Applied BioSystems, Foster City, Calif.) and the ABI PRISM 6100 Nucleic Acid PrepStation (Applied BioSystems) semiautomatic system.

Assay [5] relates to TC-1 tumor cells (expressing the E7 protein of the HPV-16 virus). As to the kind of experiment: Treatment of mice carrying TC1 subcutaneous tumors. It counts as in vivo, C57B/6 mice. The settings on record: TC1 tumors of 8 mm diameter, i.v. peptide plus 50 μg/ml poly I:C, second immunization seven days later. On the procedure:
The C57B/6 mice were subcutaneously injected with 5×10^5 TC-1 tumor cells (expressing the E7 protein of the HPV-16 virus). After 25 days, when the tumor reaches a diameter of 8 mm, the mice are intravenously treated with PBS (B), with peptide E7(49-57) plus 50 μg/ml poly I:C(C), or with peptide αMod-E7(49-57) plus 50 μg/ml poly I:C (D). Seven days later, the mice received a second immunization of the same immunogens. The tumor size, presented as the average of two perpendicular diameters, was measured at regular intervals using a gauge. The number of tumor-free mice relative to the total number of animals per group is included for each treatment.

The subject of assay [6] is T cells from OT-1 transgenic mice. Kind of assay: Antigen presentation assay: proliferation of OT-1 T cells (tritiated thymidine). It is filed as cell-based, mouse. The settings on record: dendritic cells incubated with 10 μM peptide. The method, then:
Dendritic cells derived from bone marrow were cultured in the presence or absence of 10 μM of the indicated peptides (FIG. 3). Forty hours later, the cells were washed and distributed in 96-well plates at different concentrations and incubated in the presence of 10^5 T cells/well obtained from OT-1 transgenic mice (which express a specific T receptor for the SIINFEKL peptide of ovalbumin. Seventy-two hours later, tritiated thymidine was added to the cultures and six hours later the cells were harvested and the incorporated thymidine was analyzed in a scintillation counter (Topcount Packard).

The test system of assay [7] is mouse splenocytes. Kind of assay: Binding of CFSE labeled peptides to glutaraldehyde-fixed splenocytes (flow cytometry). It counts as cell-based. To be noted: unlabeled competitor 100 μM, 20 μM CFSE γMod-SIINFEKL
Protocol: Binding assays were carried out using either splenocytes (FIG. 1, panels A B, D, E and G) or bone marrow derived dendritic cells (FIG. 1, panels C and F). The cells were fixed by means of an incubation with a 0.4% glutaraldehyde solution for 15 minutes at 4° C. 5×10^5 fixed cells were incubated in the presence of 20 μM CFSE αMod-[sequence] (FIG. 1, panels A, B and C), or CFSE γMod-[sequence] (FIG. 1, panels D, E, F and G). In some assays, and to study the specificity of CFSE labeled peptide binding, these incubations were carried out in the presence or absence of the unlabeled peptides αMod-[sequence], γMod-[sequence] or [sequence] (100 μM) (panels B and E). Also, we carried out binding assays using the CFSE labeled peptide CFSE-OVA (235-264) as a negative control (FIG. 1, panels A, C, D and F). After 30 minutes of incubation at 4° C., two washings with PBS were carried out and the performed labeling was analyzed by flow cytometry. In some experiments (FIG. 1G), double staining was carried out using anti-CD4, CD8, CD11c, CD19, F480 or GR1(CD117) antibodies labeled with phycoerythrin (Pharmingen) together with the CFSE-γMod-[sequence] peptide. In these cases, the labeling with the specific antibodies was carried out before fixing the cells with glutaraldehyde.
In assay [8] the test system is EG7OVA tumor cells. As to the kind of experiment: Treatment of mice bearing established EG7OVA tumors. It is filed as in vivo, C57BL/6 mice. To be noted: EG7OVA tumors of 5 mm diameter at treatment, peptide plus poly I:C, p<0.05. On the procedure: Protection against the challenge with EG7 tumor cells expressing the OVA protein C57BL6 mice were subcutaneously immunized with 5 nmol of the indicated peptides in combination with poly I:C. Seven days after the immunization, the mice were subcutaneously injected with 5×10^5 or with 5×10^7 EG7OVA cells. In some experiments, mice were first challenged s.c with 5×10^5 cells and when tumors reached 5 mm in diameter they were treated with the indicated peptide. The tumor growth was controlled with a gage. Mice were sacrificed when the tumor reached a volume greater than 4 cm^3. Kaplan-Meier plot of mice survival for each immunogen is depicted.

Assay [9] has as its system IFNγ-producing cells in response to the SIINFEKL peptide. As to the kind of experiment: ELISPOT of IFNγ-producing cells specific for SIINFEKL after immunization. It counts as in vivo, C57BL/6 mice. The settings on record: 5 nmoles peptide plus 50 μg poly I:C. On the procedure:
C57BL6 mice were intravenously immunized intravenously with 5 nmoles of the indicated peptides in combination with 50 μg of the TLR3 ligand poly I:C. In some cases, the peptides were immunized in the presence of TLR2 (peptidoglycan), TLR4 (LPS or the EDA protein) or TLR9 (CpG) ligand. Seven days after the immunization, the mice were intravenously injected with a mixture of 5×10^6 splenocytes, half of which had been previously labeled with a dose of 0.25 μM C and the other half with 2.5 uM CFSE and the SIINFEKL peptide (10 μg/ml). On the following day, the mice were sacrificed and the splenocytes were analyzed by flow cytometry to quantify the number of cells with high CFSE labeling with respect to the cells with low CFSE labeling. Thus, the percentage of cell lysis of the cells incubated with the cytotoxic SIINFEKL peptide can be calculated in an experiment called in vivo killing.
For the analysis of IFNγ-producing cells specific for SIINFEKL and induced in vivo by the immunizations, ELISPOT experiments were carried out using a BD-pharmingen kit (San Diego, Calif.) and according to the instructions of the manufacturer. Briefly, the plates (Multiscreen HTS, Millipore, Bedford, Mass.) incubated overnight with the anti-IFNγ antibody were blocked for 2 hours with HL-1 medium (Biowhittaker, Verviers, Belgium) containing 10% horse serum. Thus, 5×10^5 splenocytes were incubated in triplicate in the absence or in the presence of the antigens at 37° C. and 5% CO2. On the following day, the plates were washed with PBS and incubated with biotinylated anti-IFNγ antibody (2 mg/ml). After two hours, the plates were washed and incubated with a 1/100 dilution of streptavidin-peroxidase. One hour later, the wells were washed and developed using the AEC substrate set (BD-Pharmingen). The colorimetric reaction was stopped with distilled water and the number of spots was quantified using an ELISPOT automatic reader (CTL, Aalen, Germany).
For the analysis of IFNγ-producing cells in the presence of SIINFEKL and induced in vivo by the immunizations, ELISPOT experiments were carried out using a BD-pharmingen kit (San Diego, Calif.) and according to the instructions of the manufacturer, in the same manner as in Example 3.

The test system of assay [10] is EG7OVA tumor cells. Kind of assay: Protection against the challenge with EG7OVA tumor cells after immunization. The settings on record: 5 nmoles peptide with poly I:C. It is filed as in vivo, C57BL/6 mice. On the procedure:
Protection against the challenge with EG7 tumor cells expressing the OVA protein C57BL6 mice were subcutaneously immunized with 5 nmol of the indicated peptides in combination with poly I:C. […] In some experiments, mice were first challenged s.c with 5×10^5 cells and when tumors reached 5 mm in diameter they were treated with the indicated peptide. The tumor growth was controlled with a gage. Mice were sacrificed when the tumor reached a volume greater than 4 cm^3. Kaplan-Meier plot of mice survival for each immunogen is depicted.

Assay [11] has as its system splenocytes pulsed with the SIINFEKL peptide. Kind of assay: In vivo killing assay against SIINFEKL-pulsed splenocytes after immunization. Details: species or system C57BL/6 mice. To be noted: 5 nmoles peptide plus 50 μg poly I:C. The method, then: C57BL6 mice were intravenously immunized intravenously with 5 nmoles of the indicated peptides in combination with 50 μg of the TLR3 ligand poly I:C. In some cases, the peptides were immunized in the presence of TLR2 (peptidoglycan), TLR4 (LPS or the EDA protein) or TLR9 (CpG) ligand. […] On the following day, the mice were sacrificed and the splenocytes were analyzed by flow cytometry to quantify the number of cells with high CFSE labeling with respect to the cells with low CFSE labeling. Thus, the percentage of cell lysis of the cells incubated with the cytotoxic SIINFEKL peptide can be calculated in an experiment called in vivo killing.
C57BL6 wild type mice and knockout mice were immunized for TLR2 with the aim of studying the dependence on TLR2 in the immunostimulating capacity of modulin-derived peptides. Thus, different mice were injected with 5 nmoles of the indicated peptides or with PBS in combination with 50 μg of the TLR3 ligand poly I:C. […] On the following day, the mice were sacrificed and the splenocytes were analyzed by flow cytometry to quantify the number of cells with high CFSE labeling with respect to the cells with low CFSE labeling in the same manner as in Example 3.

On to “CVNGVCWTV [Peptide 1073, reference compound]”, for which, in assay [1], the “CTL activity against peptide 1073 (in vivo killing)” value (shortened to “CTL activity”) is on record as “not found”. Moreover, the “IFNγ producing cells specific for peptide 1073 (ELISPOT)” value (“IFNγ producing cells specific” below) in [2] is recorded as “not found”.

On to MAADIISTIGDLVKWIIDTVNKFKK [γMod], for which, in assay [3], the “expression of CD54 on dendritic cells” value is given as “promotes the expression” and the “expression of the IAb molecule on dendritic cells” value is “promotes the expression”. For the same substance, in assay [4], the “expression of messenger RNA for IL-12 (p40)” value is “capable of increasing the expression” and the “expression of messenger RNA for TNF-alpha” value is “capable of increasing the expression”.

Consider “MAADIISTIGDLVKWIIDTVNKFKKCVNGVCWTV [γMod-1073]”, for which, in [1], the “CTL activity” value is on record as “high levels of CTL activity”. Besides, the “IFNγ producing cells specific” value in assay [2] is reported as “high numbers of IFNγ producing cells”.

“MADVIAKIVEIVKGLIDQFTQK (Staphylococcus epidermidis RP62A) [αMod]”: in assay [3], the “expression of CD54 on dendritic cells” value was “activates the expression”, the “expression of CD86 on dendritic cells” value is “activates the expression” and the “expression of the IAb molecule on dendritic cells” value is given as “activates the expression”. In addition, in assay [4], the “expression of messenger RNA for IL-12 (p40)” value is listed as “capable of increasing the expression” and the “expression of messenger RNA for TNF-alpha” value is “capable of increasing the expression”.

On to “MADVIAKIVEIVKGLIDQFTQKCVNGVCWTV [αMod-1073]”, for which the “CTL activity” value in assay [1] is recorded as “strong T cell immune responses”. Moreover, in [2], the “IFNγ producing cells specific” value was “strong T cell immune responses”.

Consider “MSIVSTIIEVVKTIVDIVKKFKKCVNGVCWTV [δMod-1073]”, for which the “CTL activity” value in [1] is on record as “high levels of CTL activity”. In [2], the “IFNγ producing cells specific” value was “high numbers of IFNγ producing cells”.

As for “RAHYNIVTF [E7(49-57), reference compound]”, in assay [5], the “number of tumor-free (cured) mice relative to the total number of mice” value is on record as 4 of 11.

In the case of SIINFEKL [reference compound], in [6], the “proliferation of OT-1 T lymphocytes stimulated by peptide-incubated dendritic cells” value was “proliferate better”. The “reduction of the bright fluorescence of CFSE γMod-SIINFEKL on splenocytes by unlabeled peptide” value in [7] is on record as “did not affect this signal”. The “mice rejecting the established tumor” value in assay [8] stood at 0%. The results for the “IFNγ-producing cells in response to SIINFEKL (ELISPOT)” value in assay [9] (60 days after immunization) and in assay [9] (seven days after immunization) were “not capable of inducing” and “not capable of activating these responses”, respectively. In addition, the “protection from tumor growth after EG7OVA challenge” value in assay [10] (5×10^5 EG7OVA cells s.c. seven days after immunization (FIG. 5A)) and in [10] (7×10^5 EG7OVA cells s.c. seven days after immunization (FIG. 5B)) was “developed tumors” in each case. Further, the “cells with lysis capacity against SIINFEKL (in vivo killing)” value in assay [11] (60 days after immunization) was “not capable of inducing”. The “specific cytotoxic activity against SIINFEKL (in vivo killing)” value in assay [11] (seven days after immunization) is listed as “not capable of activating these responses”.

In the case of “polyinosinic-polycytidylic acid [poly I:C]”, the “mice rejecting the established tumor” value in assay [8] is reported as 0%.
